This note sets out measurements from patent US20220331416A1, “COMBINED EXPRESSION OF A CHIMERIC CD3 FUSION PROTEIN AND AN ANTI-CD3-BASED BISPECIFIC T CELL ACTIVATING ELEMENT” (BIOTHEUS (SUZHOU) CO., LTD., priority 2019, published 2022).

Data set [1] relates to HER2 CAB-T co-cultured with SKBR3. Kind of data set: Dasatinib inhibition of cytokine release of HER2 CAB-T. The class given is cell-based. Particulars: activated HER2 CAB-T, co-cultured overnight.
Data set [2] has as its system CAIX CAB-T co-cultured with CALX+MDA-MB231. The note with it: E:T 5:1, over 12 hours.
Method: Briefly, 5×10^4 effector cells (CAIX CAB-T or HER2 CAB-T) and 1×10^4 target cells (CALX+MDA-MB231 or SKBR3) were co-cultured with a gradient concentration of dasatinib (100 nM, 50 nM, 25 nM, 12.5 nM, 6.25 nM, 0 nM), Cytotoxicity of CAB-T to its target cells were determined in 2-hour intervals over a period of 12 hours [effector-to-target cell (E:T) ratio, 5:1].
For data set [3], the system named is HER2 CAB-T co-cultured with SKBR3. The experiment in a line: Dasatinib inhibition of killing activity of HER2 CAB-T (LDH). Particulars: E:T 5:1, over 12 hours.
Data set [4] concerns CAIX CAB-T co-cultured with CAIX+MDA-MB231. Kind of data set: Dasatinib inhibition of cytokine release of CAIX CAB-T. Type of data set: cell-based. Particulars: activated CAIX CAB-T, co-cultured overnight.

Each structure is given as a SMILES string.

For the molecule `Cc1nc(Nc2ncc(C(=O)Nc3c(C)cccc3Cl)s2)cc(N2CCN(CCO)CC2)n1` [dasatinib], the “dose at which IFNγ secretion is inhibited effectively” value in data set [1] and in data set [4] was “around 25 nM” in each case. In addition, the “dose at which IL-2 secretion is inhibited effectively” value in data set [1] and in data set [4] was “around 25 nM” each time. The “dose at which cytotoxicity to target cells is inhibited effectively” value in data set [2] and in data set [3] was “around 50 nM” in each case.
